Assays:
Assay type in all cases: physicochemical
[1] = Accelerated storage stability of Compound A in liquid compositions, 2 weeks at 54° C. (HPLC)
Procedure: The test compositions were prepared in a manner similar to that described in Example 1 using one or more of Compound A, prothioconazole, pyraclostrobin, benzyl acetate, and AMD 810, and a third solvent chosen from cyclohexanone, acetophenone, 2-heptanone, 2-heptanal, oleyl alcohol or 2-ethylhexanol.

[2] = Approximate (relative) solubility of active ingredients in organic solvents at ambient temperature; details: 0.2 g Compound A mixed with 1.38 g cyclohexanone
Procedure: The approximate solubility of Compound A was determined by mixing a known mass of the active ingredient with an increasing mass of each solvent at ambient temperature. […] The solubility of Compound A in the solvents used in this screening procedure was generally classified within the following concentration ranges: […]

[3] = Solubility of Compound A and prothioconazole in benzyl acetate/AMD810 blends at 10° C. (HPLC); details: both actives saturated
Procedure: A study of the Compound A and prothioconazole solubility in blends of benzyl acetate/AMD810 was conducted. To each solvent blend both actives were added until each was saturated and the resulting mixtures were then stored at 10° C. until equilibrium was obtained. Aliquots of the supernatant layer were taken from each sample, filtered (0.45 μm mesh) and analyzed by HPLC to determine the solution concentration of each active in the blends.

SMILES: COc1ccnc(C(=O)N[C@H]2COC(=O)[C@H](Cc3ccccc3)[C@@H](OC(=O)C(C)C)[C@H](C)OC2=O)c1OCOC(=O)C(C)C [Compound A, propanoic acid, 2-methyl-, [[4-methoxy-2-[[[(3S,7R,8R,9S)-9-methyl-8-(2-methyl-1-oxopropoxy)-2,6-dioxo-7-(phenylmethyl)-1,5-dioxonan-3-yl]amino]carbonyl]-3-pyridinyl]oxy]methyl ester]
- Compound A after Storage (% retention) ([1]; wt %: Compound A 3.4, AMD 810 96.0, third solvent none): 49^ % retention
- Compound A after Storage (% retention) ([1]; wt %: Compound A 4.9, benzyl acetate 94.1, third solvent none): 85^ % retention
- Compound A after Storage (% retention) ([1]; wt %: Compound A 12.0, cyclohexanone 85.7): 96^ % retention
- clear solution comprising Compound A [2]: 12.6 % w/w
- Compound A Solubility at 10° C. ([3]; benzyl acetate to AMD810 in blend 0 wt %): 3.3 % w/w
- Compound A Solubility at 10° C. ([3]; benzyl acetate to AMD810 in blend 20 wt %): 4.3 % w/w
- Compound A Solubility at 10° C. ([3]; benzyl acetate to AMD810 in blend 40 wt %): 6.5 % w/w
- Compound A Solubility at 10° C. ([3]; benzyl acetate to AMD810 in blend 60 wt %): 11.0 % w/w
- Compound A Solubility at 10° C. ([3]; benzyl acetate to AMD810 in blend 80 wt %): 12.0 % w/w

— patent US10238111B2, “Fungicidal compositions” (Dow AgroSciences LLC, priority 2014, dated 2019)
